According to patent US20230028441A1, “NOVEL HETEROARYL-TRIAZOLE COMPOUNDS AS PESTICIDES” (Bayer Aktiengesellschaft, priority 2019, published 2023):

Tests used:
Format in all cases: in vivo
[1] = system: cattle tick larvae (Rhipicephalus microplus), strain Parkhurst, resistant against synthetic pyrethroids; test: Rhipicephalus (Boophilus) microplus in-vitro contact test, larval cattle tick; details: 5 μg/cm^2 (=500 g/ha), after 48 hours, read-out: efficacy (larvae dead or moribund)
Procedure, shortened: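 Acetone solutions of compound were coated on glass tube walls (900 ppm giving 5 μg/cm^2) and dried. 20–50 pyrethroid-resistant Parkhurst larvae were held per tube at 27° C and 85% relative humidity; after 48 h negative geotaxis scored efficacy as percent larvae dead or moribund.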

[2] = system: adult engorged female ticks (Rhipicephalus microplus); test: Rhipicephalus (Boophilus) microplus injection test; details: 168 h, egg deposition after 7 days, read-out: efficacy (infertile eggs); for pest or weed control at 0.004 mg: 4 μg/animal; for pest or weed control at 0.02 mg: 20 μg/animal
Procedure, shortened: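 Compound was dissolved in DMSO at 10 mg per 0.5 mL and diluted with DMSO to the test concentration. Five engorged adult females received a 1 μL abdominal injection and were kept in a climate chamber. After 7 days, fertile egg deposition was scored, with unclear eggs held until hatching at about 42 days; 100% efficacy means all eggs were infertile.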

[3] = system: adult cat fleas (Ctenocephalides felis); test: Ctenocephalides felis in-vitro contact test, adult cat flea; details: 5 μg/cm^2 (=500 g/ha), after 48 hours, read-out: efficacy (fleas dead or moribund)
Description: (§1) 9 mg compound is solved in 1 mL acetone and diluted with acetone to the desired concentration. 250 μL of the test solution is filled in 25 mL glass test tubes and homogeneously distributed on the inner walls by rotation and tilting on a shaking device (2 h at 30 rpm). With a compound concentration of 900 ppm, an inner surface of 44.7 cm^2 and a homogeneous distribution, a dose of 5 μg/cm^2 is achieved.
After the solvent has evaporated, each test tube is filled with 5-10 adult cat fleas (Ctenocephalides felis), closed with a perforated lid and incubated in a lying position at room temperature and relative humidity. After 48 hours efficacy is determined. The fleas are patted on the ground of the tubes and are incubated on a heating plate at 45-50° C. for at most 5 minutes. Immotile or uncoordinated moving fleas, which are not able to escape the heat by climbing upwards, are marked as dead or moribund.
An efficacy of 100% means all fleas are dead or moribund; 0% means no fleas are dead or moribund.

[4] = system: adult unfed cat fleas (Ctenocephalides felis); test: Ctenocephalides felis oral test; details: 48 h, 100 ppm in cattle blood, after 2 days
Procedure, shortened: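 About 20 adult unfed Ctenocephalides felis fed through parafilm on cattle blood dosed with compound (DMSO stock diluted in blood), blood chamber at 37°C, fleas at room temperature. Mortality (%) scored after 2 days; 100% means all fleas killed.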

[5] = system: adult brown dog ticks (Rhipicephalus sanguineus); test: Rhipicephalus sanguineus in-vitro contact test with adult brown dog ticks; details: after 48 hours, read-out: efficacy (ticks dead or moribund); for pest or weed control at 1 µg/cm2, 100 g/ha: 1 μg/cm^2 (=100 g/ha); for pest or weed control at 5 µg/cm2, 500 g/ha: 5 μg/cm^2 (=500 g/ha)
Description: as §1
After the solvent has evaporated, each test tube is filled with 5-10 adult brown dog ticks (Rhipicephalus sanguineus), closed with a perforated lid and incubated in a lying position at room temperature and relative humidity. After 48 hours efficacy is determined. The ticks are patted on the ground of the tubes and are incubated on a heating plate at 45-50° C. for at most 5 minutes. Immotile or uncoordinated moving ticks, which are not able to escape the heat by climbing upwards, are marked as dead or moribund.
An efficacy of 100% means all ticks are dead or moribund; 0% means no ticks are dead or moribund.

[6] = system: green peach aphid (Myzus persicae); test: Myzus persicae oral test; details: 120 h
Description: Solvent: 100 parts by weight acetone
To produce a suitable preparation of active compound, 1 part by weight of active compound is mixed with the stated amount of solvent, and the concentrate is diluted with water to the desired concentration.
50 μL compound solution is filled in microtiter plates and 150 μL IPL41 insect medium (33%+15% sugar) is added to obtain a total volume of 200 μL per well. Afterwards the plates are sealed with parafilm through which a mixed population of the green peach aphid (Myzus persicae) can suck on the compound preparation.
After 5 days mortality in % is determined. 100% means all aphids have been killed and 0% means none of the aphids have been killed.

[7] = system: fall armyworm larvae (Spodoptera frugiperda); test: Spodoptera frugiperda spray test (maize leaf sections); details: 168 h
Procedure, shortened: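 Maize leaf sections were sprayed with compound formulated in acetone/DMF and diluted in water containing 1000 ppm emulsifier. Once dry, sections were infested with fall armyworm larvae. Mortality (%) was scored after 7 days.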

[8] = system: larvae of the southern green stink bug (Nezara viridula); test: Nezara viridula spray test; details: in Hordeum vulgare, 96 h
Procedure, shortened: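 Barley plants infested with Nezara viridula larvae were sprayed with compound in acetone/dimethylformamide, diluted in water containing 1000 ppm alkylarylpolyglycol ether emulsifier. Mortality (%) was scored after 4 days; 100% means all stink bugs killed.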

[9] = system: larvae of the banded cucumber beetle (Diabrotica balteata); test: Diabrotica balteata spray test; details: 168 h, after 7 days, wheat seeds, read-out: efficacy (seedlings grown up); for pest or weed control at 32 µg/disc, 100 g/ha: 100 g/ha (=32 μg/well)
Procedure, shortened: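 Germinated wheat seedlings (5 per well, agar plates) sprayed with compound in acetone/DMF diluted in water with 1000 ppm emulsifier, then infested with 10-20 larvae per unit. Efficacy scored after 7 days as % seedling growth relative to untreated, uninfested control (100% = normal growth, 0% = none).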

[10] = system: brown planthopper (Nilaparvata lugens); test: Nilaparvata lugens spray test; details: in Oryza sativa, 96 h
Description: Solvent: 78.0 parts by weight of acetone • • 1.5 parts by weight of dimethylformamide
Emulsifier: alkylarylpolyglycol ether
To produce a suitable preparation of active compound, 1 part by weight of active compound is mixed with the stated amount of solvents and is diluted with water, containing an emulsifier concentration of 1000 ppm, to the desired concentration. Further test concentrations are prepared by dilution with emulsifier containing water.
Rice plants (Oryza sativa) are sprayed with a preparation of the active ingredient of the desired concentration and the plants are infested with the brown planthopper (Nilaparvata lugens).
After 4 days mortality in % is determined. 100% means all planthoppers have been killed and 0% means none of the planthoppers have been killed.

Row | Structure (SMILES) | pest or weed control at 5 µg/cm2 [1] | pest or weed control at 0.004 mg [2] | pest or weed control at 5 µg/cm2 [3] | mortality at 100 ppm [4] | mortality at 4 ppm [6] | mortality at 100 g/ha [7] | mortality at 500 g/ha [8] | pest or weed control at 32 µg/disc, 100 g/ha [9] | mortality at 500 g/ha [10] | also measured
1 | CC(NC(=O)c1cc(Cl)cc(C(F)(F)F)c1)c1nc(NC(=O)C2(Cl)CC2)nn1-c1ncccn1 (stereo not drawn) [I-022] | 90% | 100% | 100% | 100% | 100% | 100% |  |  |  | pest or weed control at 1 µg/cm2, 100 g/ha [5]: 100%; pest or weed control at 5 µg/cm2, 500 g/ha [5]: 100%
2 | CC(NC(=O)c1cc(Br)cc(Br)c1)c1nc(N)nn1-c1ccc(C(=O)N2CCOCC2)cn1 (racemic) [I-107, N-[1-[5-amino-2-[5-(morpholine-4-carbonyl)-2-pyridyl]-1,2,4-triazol-3-yl]ethyl]-3,5-dibromo-benzamide] |  |  | 90% |  | 90% |  |  |  |  | 
3 | CC(NC(=O)c1cc(Cl)cc(C(F)(F)F)c1)c1nc(C#N)nn1-c1ccc(Cl)cn1 (racemic) [I-071, 3-chloro-N-[1-[2-(5-chloro-2-pyridyl)-5-cyano-1,2,4-triazol-3-yl]ethyl]-5-(trifluoromethyl)benzamide] | 90% | 100% | 80% |  |  |  |  |  |  | pest or weed control at 0.02 mg [2]: 100%
4 | CC(NC(=O)c1cc(C(F)(F)F)cc(C(F)(F)F)c1)c1nc(N)nn1-c1ccc(C(=O)N2CCOCC2)cn1 (stereo not drawn) [I-115] | 100% |  | 100% |  |  | 100% | 100% |  |  | pest or weed control at 1 µg/cm2, 100 g/ha [5]: 100%; pest or weed control at 5 µg/cm2, 500 g/ha [5]: 100%
5 | CC(NC(=O)c1cc(Br)cc(C2(C(F)(F)F)CC2)c1)c1nc(N)nn1-c1ncccn1 (stereo not drawn) [I-112] | 100% |  | 90% |  |  |  |  |  |  | 
6 | CC(NC(=O)c1cc(Cl)cc(C(F)(F)F)c1)c1nc(C(N)=O)nn1-c1ccc(C#N)cn1 (stereo not drawn) [I-075] | 100% | 100% | 90% | 100% |  |  |  | 100% |  | 
7 | CC(=O)N(C)c1nc(C(C)NC(=O)c2cc(C(F)(F)F)cc(C(F)(F)F)c2)n(-c2ncccn2)n1 (stereo not drawn) [I-091] |  | 100% | 100% | 100% | 100% | 100% |  | 100% |  | 
8 | CNc1nc([C@H](C)NC(=O)c2cc(Cl)cc(S(=O)(=O)C(F)(F)F)c2)n(-c2ncccn2)n1 [I-186] |  |  |  |  |  | 100% | 100% | 100% | 100% | 
9 | CON(C)c1nc([C@H](C)NC(=O)c2cc(C(F)(F)F)cc(C(F)(F)F)c2)n(-c2ncccn2)n1 [I-149, N-[(1S)-1-[5-[methoxy(methyl)amino]-2-pyrimidin-2-yl-1,2,4-triazol-3-yl]ethyl]-3,5-bis(trifluoromethyl)benzamide] |  |  |  |  |  | 100% | 100% | 100% | 100% | 
10 | CC(NC(=O)c1cc(Cl)cc(C(C)(C)C#N)c1)c1nc(N(C)C)nn1-c1ncc(Cl)cn1 (stereo not drawn) [I-170] |  |  |  |  |  | 100% | 100% | 100% | 100% | 
11 | CC(NC(=O)c1cc(Br)cc(C(F)(F)F)c1)c1nc(N(C)C(=O)OC(C)(C)C)nn1-c1ncccn1 (stereo not drawn) [I-089] |  | 100% | 90% | 100% | 100% | 100% |  | 100% |  | 
12 | C[C@H](NC(=O)c1cc(C(F)(F)F)cc(C(F)(F)F)c1)c1nc(N)nn1-c1ccc(C#N)cn1 [I-173] |  |  |  |  |  | 100% | 90% | 100% | 100% | 
13 | C[C@H](NC(=O)c1cc(OC(F)(F)F)cc(C2CC2)c1)c1nc(N(C)C)nn1-c1ncc(Cl)cn1 [I-177] |  |  |  |  |  | 100% | 100% | 100% | 100% | 
14 | CNc1nc(C(C)NC(=O)c2cc(Br)cc(Br)c2)n(-c2ncccn2)n1 (stereo not drawn) [I-100] | 100% | 100% | 100% | 100% | 100% | 100% |  | 100% |  | pest or weed control at 1 µg/cm2, 100 g/ha [5]: 100%; pest or weed control at 5 µg/cm2, 500 g/ha [5]: 100%
15 | CSc1nc(C(C)NC(=O)c2cc(Cl)cc(S(C)(=O)=O)c2)n(-c2ccc(Cl)cn2)n1 (racemic) [I-059, 3-chloro-N-[1-[2-(5-chloro-2-pyridyl)-5-methylsulfanyl-1,2,4-triazol-3-yl]ethyl]-5-methylsulfonyl-benzamide] | 100% | 100% | 80% |  | 100% |  | 100% | 100% |  | pest or weed control at 0.02 mg [2]: 100%; pest or weed control at 160 µg/disc, 500 g/ha ([9]; 500 g/ha (=160 μg/well)): 100%; mortality at 100 g/ha [8]: 100%; mortality at 500 g/ha [7]: 100%
